Results as given in US10793589B2, “Resorcinarene-based amphipathic compound and use thereof” (Industry-University Cooperation Foundation Hanyang …, priority 2016, dated 2020).
Entries after “also recorded” stand apart in the source; their conditions may differ. Where two headings read alike, the source gives them in different places.

Assays:
[1] = Critical micelle concentration by fluorescence dye diphenylhexatriene (DPH); assay type: physicochemical
Protocol: A method of measuring the CMC is not particularly limited and may be any method generally known in the art. For example, the CMC may be measured according to a fluorescence staining method using diphenylhexatriene (DPH).
(§1) Specifically, critical micelle concentrations (CMCs) were measured using a fluorescence dye, diphenylhexatriene (DPH), and hydrodynamic radii (Rh) of micelles formed of each compound (1.0 wt %) were measured by a dynamic light scattering (DLS) experiment. Measured results are shown in Table 1 in comparison with values of DDM as an existing amphipathic molecule (detergent).

[2] = target: T1, human β2 adrenergic receptor (β2AR) (Homo sapiens, UniProt P07550); experiment: β2AR stability, [3H]-dihydroalprenolol (DHA) ligand binding assay; assay type: biochemical
T1 construct: made in house
Protocol: (§2) FIGS. 10A and 10B illustrate a result of measuring the effect of RGAs on the stability of β2AR after (a) 0 hour and (b) over time. Protein-ligand binding characteristics were measured via ligand binding assay using [^3H]-dihydroalprenolol (DHA), and the measurement was carried out by sampling a protein sample at regular intervals during 2 days of storage at room temperature.
as §2, with “12A” for “10A”, “12B” for “10B”, “RMAs” for “RGAs”
An experiment was carried out to measure the structural stability of a human (32 adrenergic receptor (β2AR) and a G protein-coupled receptor (GPCR) caused by RGAs and RMAs. That is, a receptor purified with DDM was diluted with a buffer solution containing only each RGA and RMA without cholesteryl hemisuccinate (CHS) or a buffer solution containing CHS and DDM. The final concentration of the compound was CMC+0.2 wt %, and the ligand binding characteristic of the receptor was measured using [^3H]-dihydroalprenolol ([^3H]-DHA) binding.
Specifically, radioligand binding assay was carried out using the following method. β2AR was purified using 0.1% DDM according to the method described in a paper (Science, 2007, 318, 1266-1273.) written by D. M. Rosenbaum et al. and finally concentrated to about 10 mg/ml (about 200 μM). The β2AR purified with DDM was used to prepare a master binding mixture containing 10 nM [^3H]-dihydroalprenolol (DHA) supplemented with 0.5 mg/ml BSA in a 0.2% amphipathic compound (DDM, RGAs or RMAs). The receptor purified with DDM, RGAs or RMAs was incubated with 10 nM [^3H]-DHA at room temperature for 30 minutes. The mixture was loaded into a G-50 column, the flow-through was collected with 1 ml of a binding buffer (20 mM HEPES pH 7.5, 100 mM NaCl, supplemented with 0.5 mg/ml BSA and 20×CMC individual amphipathic compound, and the G-50 column was further filled with 15 ml of a scintillation fluid. Receptor-bound [^3H]-DHA was measured with a scintillation counter (Beckman). The binding capacity of [^3H]-DHA was measured and shown in a column graph. Each experiment was performed in triplicate.

[3] = Hydrodynamic radius and size distribution of micelles by dynamic light scattering (DLS); assay type: physicochemical; conditions: compound 1.0 wt %
Protocol: A method of measuring the radius of a micelle is not particularly limited and may be any method generally known in the art. For example, the radius may be measured by a dynamic light scattering (DLS) experiment.
as §1
Meanwhile, size distributions of the micelles formed by RGAs and RMAs were measured using DLS.

[4] = target: T1, human β2 adrenergic receptor (β2AR); experiment: Size exclusion chromatography (SEC) of β2AR receptor-detergent complex; conditions: 20×CMC detergent
Protocol: FIG. 11 illustrates a result of evaluating the size characteristic of a (32AR protein-ligand binding complex formed of RGA-C11, RGA-C13, or DDM via a size exclusion chromatography (SEC) test.
In addition, a size exclusion chromatography (SEC) test was conducted. Specifically, β2AR purified with 0.1% DDM was loaded on a M1 Flag column in the presence of 2 mM CaCl2, and the column was washed with a DDM, RGA-C11 or RGA-C13 detergent buffer (20 mM HEPES pH 7.5, 100 mM NaCl, 0.2% individual amphipathic compound). The receptor was eluted with 20×CMC DDM, RGA-C11, or RGA-C13 with 5 mM EDTA and 0.2 mg/ml free Flag peptide. The eluate was further added to a Superdex-200 10/300 GL column (GE Healthcare) at 0.5 ml/min, and UV absorbance at 280 nm was recorded. The running buffer contained 20 mM HEPES pH 7.5, 100 mM NaCl, 20×CMC individual detergent (DDM, RGA-C11 and RGA-C13).

[5] = target: T2, Salmonella typhimurium melibiose permease (MelB) (Salmonella typhimurium, UniProt P30878); experiment: MelB extraction and solubility after 90 min incubation, SDS-PAGE and western blotting; assay type: biochemical; conditions: 1.5 wt %
T2 construct: made in house; host or cells: E. coli DW2 (melB and lacZY deleted), plasmid pK95AHB/WT MelBSt/CH10
Protocol: FIGS. 9A and 9B illustrate a result of measuring the amount of a MelB protein dissolved in an aqueous solution after a MelB protein was extracted at four temperatures (0, 45, 55, and 65) using RGAs or DDM at a concentration of 1.5 wt % and then incubated at the same temperatures for 90 minutes:
RGAs were selected, and an experiment was carried out to measure the structural stability of a Salmonella typhimurium melibiose permease (MelB) caused by RGAs. A MelB protein was extracted from a membrane using RGAs or DDM, and the amount and structure of the protein thus extracted was then analyzed by performing SDS-PAGE and western blotting. In this case, the concentration of the used amphipathic compound was 1.5 wt %. The protein was extracted at four temperatures (0, 45, 55, and 65° C.) and then incubated at the same temperatures for 90 minutes. Subsequently, two kinds of performance of the compound, that is, protein extraction efficiency and protein stability were evaluated at the same time by measuring the amount of a protein which remained dissolved in an aqueous solution. The amount of a protein which was extracted and stabilized by an individual amphipathic molecule was expressed as a relative value (%) with respect to the amount of the entire protein included in a membrane sample not treated with an amphipathic molecule.
Specifically, a C-terminal 10-His-tagged Salmonella typhimurium melibiose permease (MelBSt) was expressed in E. coli DW2 cells (melB and lacZY) using plasmid pK95AHB/WT MelBSt/CH10. Cells were grown and membranes were prepared according to the method described in a paper (Nat. Commun. 2014, 5, 3009) written by A. S. Ethayathulla et al. A protein assay was carried out with a Micro BCA kit (Thermo Scientific, Rockford, Ill.). RGAs and DDM were evaluated to measure the stability of MelBSt according to the protocol described in a paper (Nat. Methods 2010, 7, 1003-1008) written by P. S. Chae et al. The membrane sample (final protein concentration of 10 mg/mL) containing MelBSt was incubated in a solubilization buffer containing 1.5% (w/v) DDM or RGAs (20 mM sodium phosphate, pH 7.5, 200 mM NaCl, 10% glycerol, and 20 mM melibiose) at four temperatures (0, 45, 55, and 65° C.) for 90 minutes. An insoluble material was removed by ultracentrifugation at 355,590 g at 4° C. for 45 minutes using a Beckman Optima™ MAX ultracentrifuge equipped with a TLA-100 rotor. A dissolved portion was separated by SDS-16% PAGE, and immunoblotting was then performed using a Penta-His-HRP antibody (Qiagen, Germantown, Md.). A membrane fraction containing 20 μg of protein without treatment was used to illustrate the overall MelB, and the treated samples were loaded into each well in equal volume. MelBSt was measured using the SuperSignal West Pico Chemiluminescent substrate by ImageQuant LAS 4000 Biomolecular Imager (GE Healthcare Life Sciences).

[6] = tested on: leucine transporter (LeuT); experiment: LeuT structural stability, [3H]-Leu binding by scintillation proximity assay (SPA); assay type: biochemical, Aquifex aeolicus; conditions: CMC+0.04 wt % versus CMC+0.2 wt %
Protocol: (§3) FIGS. 7A and 7B are a set of graphs illustrating a result of measuring the structural stability of a leucine transporter (LeuT) solubilized in RGAs or DDM evaluated at CMC+0.04 wt % (a) or CMC+0.2 wt % (b). Protein stability was determined by measuring the ability of the transporter to bind a radiolabeled ligand ([3H]-Leu) via scintillation proximity assay (SPA). The substrate binding ability of LeuT was measured at regular intervals during 10 days of incubation of the protein at room temperature in the presence of individual amphipathic compounds.
as §3, with “8A” for “7A”, “8B” for “7B”, “RMAs” for “RGAs”
An experiment was carried out to measure the structural stability of a leucine transporter (LeuT) caused by RGAs and RMAs. The concentrations of individual amphipathic compounds were (a) CMC+0.04 wt % or (b) CMC+0.2 wt %, and the substrate binding characteristic of LeuT was measured by scintillation proximity assay (SPA) using [^3H]-Leu. […]
Specifically, wild type LeuT derived from Aquifex aeolicus which is a thermophilic bacterium was purified according to the method described in the paper (Nature 1998, 392, 353-358) written by G. Deckert et al. LeuT was expressed in E. coli C41 (DE3) transformed with pET16b encoding a C-terminal 8×His-tagged transporter (an expression plasmid was provided by Dr. E. Gouaux (Vollum Institute, Portland, Oreg., USA)). […] The protein samples were stored at room temperature for 10 days and centrifuged at designated time points, and protein characteristics were determined by measuring the binding capacity of [^3H]-Leucine using SPA. […]

T2 sequence (P30878 whole entry): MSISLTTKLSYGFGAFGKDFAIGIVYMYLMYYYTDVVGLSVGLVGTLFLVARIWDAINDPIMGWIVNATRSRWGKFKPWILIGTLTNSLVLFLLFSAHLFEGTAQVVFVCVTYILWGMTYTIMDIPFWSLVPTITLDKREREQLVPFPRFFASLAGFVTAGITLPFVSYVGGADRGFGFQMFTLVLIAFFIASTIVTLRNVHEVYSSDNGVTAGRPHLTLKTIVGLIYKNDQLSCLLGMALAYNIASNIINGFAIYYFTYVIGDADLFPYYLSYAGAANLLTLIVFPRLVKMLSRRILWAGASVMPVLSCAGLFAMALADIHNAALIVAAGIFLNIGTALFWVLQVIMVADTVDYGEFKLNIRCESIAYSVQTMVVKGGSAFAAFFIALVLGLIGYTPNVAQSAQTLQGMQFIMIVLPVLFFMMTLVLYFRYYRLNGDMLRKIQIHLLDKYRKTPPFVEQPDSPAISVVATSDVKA
T1 sequence (P07550 whole entry): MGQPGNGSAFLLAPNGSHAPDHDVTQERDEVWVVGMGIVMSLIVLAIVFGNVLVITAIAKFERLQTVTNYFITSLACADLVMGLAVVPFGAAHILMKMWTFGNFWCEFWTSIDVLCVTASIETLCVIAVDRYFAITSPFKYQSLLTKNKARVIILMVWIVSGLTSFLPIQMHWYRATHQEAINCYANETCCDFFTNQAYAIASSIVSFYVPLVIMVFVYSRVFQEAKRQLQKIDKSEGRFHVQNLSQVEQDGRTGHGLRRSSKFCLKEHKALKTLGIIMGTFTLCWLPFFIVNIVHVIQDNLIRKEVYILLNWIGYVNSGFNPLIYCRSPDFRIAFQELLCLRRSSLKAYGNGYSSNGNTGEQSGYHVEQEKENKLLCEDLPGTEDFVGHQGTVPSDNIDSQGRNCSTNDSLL

SMILES	CMC (wt %) ([1]; DPH fluorescence)	maintaining the ligand binding characteristic of the receptor compared to DDM ([2]; 0 hour, CMC+0.2 wt %, [3H]-DHA)	ability to maintain the ligand binding of the receptor over time compared to DDM ([2]; 2 days at room temperature, early stage (0 to 12 h))	Rh (nm), hydrodynamic radius of micelles [3]	size of receptor-detergent complex [4]	MelB protein extraction efficiency and solubility ([5]; 55° C.)	CMC [1]	CMC ([1]; DPH fluorescence)	LeuT stabilization as concentration of compound increased [6]	MelB protein extraction/solubilization efficiency ([5]; 0° C.)	MelB protein extraction efficiency and solubility ([5]; 45° C.)	MelB protein extraction ([5]; 65° C.)
CCCCCCCCCC[C@H]1c2cc(c(OCCO[C@@H]3OC(CO)[C@@H](O)[C@H](O)C3O)cc2OCCO[C@@H]2OC(CO)[C@@H](O)[C@H](O)C2O)[C@H](CCCCCCCCCC)c2cc(c(OCCO[C@@H]3OC(CO)[C@@H](O)[C@H](O)C3O)cc2OCCO[C@@H]2OC(CO)[C@@H](O)[C@H](O)C2O)[C@@H](CCCCCCCCCC)c2cc(c(OCCO[C@@H]3OC(CO)[C@@H](O)[C@H](O)C3O)cc2OCCO[C@@H]2OC(CO)[C@@H](O)[C@H](O)C2O)[C@@H](CCCCCCCCCC)c2cc1c(OCCO[C@@H]1OC(CO)[C@@H](O)[C@H](O)C1O)cc2OCCO[C@@H]1OC(CO)[C@@H](O)[C@H](O)C1O (some centres unmarked) [RGA-C11]	~0.0081 wt %	superior to DDM	superior ability to maintain the ligand binding of the receptor compared to DDM	6.8 ± 0.2 nm	significantly smaller than that formed of DDM	maintained MelB solubility better than DDM; also recorded: higher protein extraction efficiency than DDM	–	–	–	–	–	–
CCCCCCCCCCCCO[C@@H]1O[C@H](CO)[C@@H](O[C@H]2O[C@H](CO)[C@@H](O)[C@H](O)[C@H]2O)[C@H](O)[C@H]1O [DDM, n-dodecyl-β-D-maltopyranoside, reference compound]	0.0087 wt %	–	–	3.4 ± 0.0 nm	–	–	0.17 mM	0.17 mM	constant structural collapse of the solubilized transporter	high MelB protein extraction efficiency	high MelB protein extraction efficiency	hardly extracted
